ChEMBL document CHEMBL1124073, “Synthesis and copper-dependent antimycoplasmal activity of 1-amino-3-(2-pyridyl)isoquinoline derivatives. 1. Amides” (1988)
Values after ≈ are worked out from the molar mass of the structure shown.

How the values were obtained:
[1] = system: Mycoplasmoides gallisepticum; assay: Antimycoplasmal activity against Mycoplasma gallisepticum K514 without the extra addition of copper; assay type: functional
[2] = system: Mycoplasmoides gallisepticum; assay: Antimycoplasmal activity against Mycoplasma gallisepticum K514 with the extra addition of copper (40 uM); assay type: functional

MIC [1]	MIC [2]	Compound
> 100 µM	0.39 µM (≈ 0.138 µg/mL)	Cc1ccc(C(=O)Nc2nc(-c3ccccn3)cc3ccccc23)c(C)c1
> 100 µM	0.39 µM (≈ 0.138 µg/mL)	Cc1ccc(C)c(C(=O)Nc2nc(-c3ccccn3)cc3ccccc23)c1
> 170 µM	0.36 µM (≈ 0.125 µg/mL)	CCCCC(CC)C(=O)Nc1nc(-c2ccccn2)cc2ccccc12 (stereo not drawn)
> 160 µM	0.18 µM (≈ 0.064 µg/mL)	COc1ccc(C(=O)Nc2nc(-c3ccccn3)cc3ccccc23)cc1
> 25 µM	0.78 µM (≈ 0.276 µg/mL)	Cc1cccc(C)c1C(=O)Nc1nc(-c2ccccn2)cc2ccccc12
> 160 µM	0.64 µM (≈ 0.252 µg/mL)	O=C(Nc1nc(-c2ccccn2)cc2ccccc12)c1ccc(Cl)c(Cl)c1
> 100 µM	0.39 µM (≈ 0.138 µg/mL)	Cc1cc(C)cc(C(=O)Nc2nc(-c3ccccn3)cc3ccccc23)c1
> 23 µM	0.35 µM (≈ 0.126 µg/mL)	O=C(Nc1nc(-c2ccccn2)cc2ccccc12)c1cccc(Cl)c1
> 25 µM	0.22 µM (≈ 0.0641 µg/mL)	CC(C)C(=O)Nc1nc(-c2ccccn2)cc2ccccc12
> 160 µM	0.19 µM (≈ 0.0645 µg/mL)	Cc1ccc(C(=O)Nc2nc(-c3ccccn3)cc3ccccc23)cc1
> 25 µM	0.45 µM (≈ 0.125 µg/mL)	CCC(=O)Nc1nc(-c2ccccn2)cc2ccccc12
> 23 µM	0.09 µM (≈ 0.0305 µg/mL)	Cc1cccc(C(=O)Nc2nc(-c3ccccn3)cc3ccccc23)c1
> 25 µM	1.9 µM (≈ 0.5 µg/mL)	CC(=O)Nc1nc(-c2ccccn2)cc2ccccc12
> 25 µM	0.21 µM (≈ 0.0641 µg/mL)	CC(C)(C)C(=O)Nc1nc(-c2ccccn2)cc2ccccc12
> 170 µM	0.34 µM (≈ 0.128 µg/mL)	CCCCCCCCCC(=O)Nc1nc(-c2ccccn2)cc2ccccc12
> 100 µM	0.39 µM (≈ 0.138 µg/mL)	Cc1ccc(C(=O)Nc2nc(-c3ccccn3)cc3ccccc23)cc1C
0.1 µM (≈ 0.0916 µg/mL)	0.1 µM (≈ 0.0916 µg/mL)	CC[C@H]1OC(=O)C[C@@H](O)[C@H](C)[C@@H](O[C@@H]2O[C@H](C)[C@@H](O[C@H]3C[C@@](C)(O)[C@@H](O)[C@H](C)O3)[C@H](N(C)C)[C@H]2O)[C@@H](CC=O)C[C@@H](C)C(=O)/C=C/C(C)=C/[C@@H]1CO[C@@H]1O[C@H](C)[C@@H](O)[C@@H](OC)[C@H]1OC [TYLOSIN]
> 160 µM	0.35 µM (≈ 0.126 µg/mL)	O=C(Nc1nc(-c2ccccn2)cc2ccccc12)c1ccc(Cl)cc1
400 µM	–	CUPRIC SULFATE
452 µM (≈ 100 µg/mL)	0.45 µM (≈ 0.0996 µg/mL)	Nc1nc(-c2ccccn2)cc2ccccc12
> 23 µM	0.18 µM (≈ 0.064 µg/mL)	COc1cccc(C(=O)Nc2nc(-c3ccccn3)cc3ccccc23)c1
12.3 µM (≈ 4.01 µg/mL)	0.1 µM (≈ 0.0325 µg/mL)	O=C(Nc1nc(-c2ccccn2)cc2ccccc12)c1ccccc1
